Laboratory results: ChEMBL document CHEMBL5465560, “Selectivity Literature for EUbOPEN Chemogenomic Library” (2024)

Columns and labels:
[1] = target: Dual specificity protein kinase CLK3 (Homo sapiens, UniProt P49761); assay: Selectivity interaction (Kinase panel (DSF assay)) EUB0001558a CLK3
[2] = target: T1, Phosphatidylinositol 4,5-bisphosphate 3-kinase catalytic subunit delta isoform (Homo sapiens) (UniProt O00329); assay: Selectivity interaction (Kinase panel (KiNativ target engagement assay in Jurkat cells)) EUB0001635a PIK3CD; format: cell-based; settings: Selectivity number of off-targets 0.0, Selectivity number of targets 233.0, Source Knowledge https://www.sciencedirect.com/science/article/pii/S2451945619300674?via%3Dihub, at 1 µM
T1 sequence (whole entry): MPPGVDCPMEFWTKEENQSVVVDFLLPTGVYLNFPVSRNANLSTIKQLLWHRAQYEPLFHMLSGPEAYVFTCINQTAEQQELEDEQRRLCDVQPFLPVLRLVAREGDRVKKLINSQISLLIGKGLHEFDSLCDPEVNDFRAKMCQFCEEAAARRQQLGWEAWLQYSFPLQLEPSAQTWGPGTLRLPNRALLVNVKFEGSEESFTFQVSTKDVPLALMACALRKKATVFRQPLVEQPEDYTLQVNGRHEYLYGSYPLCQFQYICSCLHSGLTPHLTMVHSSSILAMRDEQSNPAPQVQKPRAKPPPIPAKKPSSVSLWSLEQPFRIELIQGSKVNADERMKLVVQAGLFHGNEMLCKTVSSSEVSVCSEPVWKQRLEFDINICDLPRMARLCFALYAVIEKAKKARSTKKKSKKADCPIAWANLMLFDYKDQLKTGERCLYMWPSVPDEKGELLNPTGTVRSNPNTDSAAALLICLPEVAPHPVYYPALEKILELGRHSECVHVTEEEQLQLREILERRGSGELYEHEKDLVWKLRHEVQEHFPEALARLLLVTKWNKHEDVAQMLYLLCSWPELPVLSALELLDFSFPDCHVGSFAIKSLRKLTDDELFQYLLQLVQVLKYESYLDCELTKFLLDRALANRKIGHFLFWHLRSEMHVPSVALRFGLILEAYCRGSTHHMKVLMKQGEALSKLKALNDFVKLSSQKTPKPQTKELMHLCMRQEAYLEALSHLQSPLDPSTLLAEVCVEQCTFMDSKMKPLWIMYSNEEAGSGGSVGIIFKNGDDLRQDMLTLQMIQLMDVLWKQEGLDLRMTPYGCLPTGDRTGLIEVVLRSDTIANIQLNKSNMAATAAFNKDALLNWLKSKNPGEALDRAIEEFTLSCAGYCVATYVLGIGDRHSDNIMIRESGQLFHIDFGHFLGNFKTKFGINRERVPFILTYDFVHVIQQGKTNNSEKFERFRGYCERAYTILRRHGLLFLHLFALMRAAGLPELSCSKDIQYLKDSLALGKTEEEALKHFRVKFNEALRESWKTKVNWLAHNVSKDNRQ

[3] = target: Serine/threonine-protein kinase PLK1 (Homo sapiens, UniProt P53350); assay: Selectivity interaction (Kinase panel (KiNativ target engagement assay in Jurkat cells)) EUB0001635a PLK1; format: cell-based; settings: Selectivity number of off-targets 0.0, Selectivity number of targets 233.0, Source Knowledge https://www.sciencedirect.com/science/article/pii/S2451945619300674?via%3Dihub, at 1 µM
[4] = target: T2, cGMP-dependent protein kinase 2 (Homo sapiens) (UniProt Q13237); assay: Selectivity interaction (KinomeScan (DiscoverX)) EUB0000045b PRKG2
T2 sequence (whole entry): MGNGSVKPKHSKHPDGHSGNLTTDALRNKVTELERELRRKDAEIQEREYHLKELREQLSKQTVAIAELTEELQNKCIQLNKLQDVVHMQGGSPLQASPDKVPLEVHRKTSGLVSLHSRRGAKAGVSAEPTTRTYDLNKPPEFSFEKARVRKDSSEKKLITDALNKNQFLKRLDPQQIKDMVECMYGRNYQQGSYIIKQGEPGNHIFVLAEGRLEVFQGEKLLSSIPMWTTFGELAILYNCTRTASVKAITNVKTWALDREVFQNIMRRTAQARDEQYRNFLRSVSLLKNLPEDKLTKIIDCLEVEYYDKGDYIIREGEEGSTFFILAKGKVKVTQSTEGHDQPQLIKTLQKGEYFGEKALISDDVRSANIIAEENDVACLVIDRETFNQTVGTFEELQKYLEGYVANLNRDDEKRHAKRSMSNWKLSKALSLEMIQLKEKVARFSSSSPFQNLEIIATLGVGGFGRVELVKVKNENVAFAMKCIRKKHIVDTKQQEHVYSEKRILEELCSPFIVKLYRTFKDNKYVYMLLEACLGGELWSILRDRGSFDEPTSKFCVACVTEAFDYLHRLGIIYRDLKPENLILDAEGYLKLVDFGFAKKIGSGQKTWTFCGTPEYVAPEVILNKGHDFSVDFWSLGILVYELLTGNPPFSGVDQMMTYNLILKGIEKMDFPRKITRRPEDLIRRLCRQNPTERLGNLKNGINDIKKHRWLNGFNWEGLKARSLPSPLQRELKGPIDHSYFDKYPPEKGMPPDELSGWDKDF

[5] = target: T3, Protein kinase C epsilon type (Homo sapiens) (UniProt Q02156); assay: Selectivity interaction (KinomeScan (DiscoverX)) EUB0000045b PRKCE
T3 sequence (whole entry): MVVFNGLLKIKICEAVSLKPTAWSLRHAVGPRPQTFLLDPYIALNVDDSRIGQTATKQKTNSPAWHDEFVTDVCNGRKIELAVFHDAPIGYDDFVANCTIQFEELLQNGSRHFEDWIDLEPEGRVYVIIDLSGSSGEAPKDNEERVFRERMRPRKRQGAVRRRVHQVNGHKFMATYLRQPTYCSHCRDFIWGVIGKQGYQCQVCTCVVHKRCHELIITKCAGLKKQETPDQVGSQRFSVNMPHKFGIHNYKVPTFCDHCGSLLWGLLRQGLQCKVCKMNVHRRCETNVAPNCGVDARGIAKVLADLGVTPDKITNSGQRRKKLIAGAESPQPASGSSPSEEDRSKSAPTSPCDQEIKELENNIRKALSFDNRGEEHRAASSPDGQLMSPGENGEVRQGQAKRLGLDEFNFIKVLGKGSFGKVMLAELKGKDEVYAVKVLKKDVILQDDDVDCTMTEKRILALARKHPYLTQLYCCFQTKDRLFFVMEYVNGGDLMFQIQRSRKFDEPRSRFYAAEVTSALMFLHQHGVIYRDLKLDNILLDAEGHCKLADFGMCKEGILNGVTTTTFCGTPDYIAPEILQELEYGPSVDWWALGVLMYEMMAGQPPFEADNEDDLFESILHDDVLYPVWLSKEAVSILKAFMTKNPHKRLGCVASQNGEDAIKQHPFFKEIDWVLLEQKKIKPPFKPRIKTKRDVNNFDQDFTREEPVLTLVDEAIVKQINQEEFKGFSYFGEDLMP

Chain of Serine/threonine-protein kinase PLK1 (P53350 whole entry): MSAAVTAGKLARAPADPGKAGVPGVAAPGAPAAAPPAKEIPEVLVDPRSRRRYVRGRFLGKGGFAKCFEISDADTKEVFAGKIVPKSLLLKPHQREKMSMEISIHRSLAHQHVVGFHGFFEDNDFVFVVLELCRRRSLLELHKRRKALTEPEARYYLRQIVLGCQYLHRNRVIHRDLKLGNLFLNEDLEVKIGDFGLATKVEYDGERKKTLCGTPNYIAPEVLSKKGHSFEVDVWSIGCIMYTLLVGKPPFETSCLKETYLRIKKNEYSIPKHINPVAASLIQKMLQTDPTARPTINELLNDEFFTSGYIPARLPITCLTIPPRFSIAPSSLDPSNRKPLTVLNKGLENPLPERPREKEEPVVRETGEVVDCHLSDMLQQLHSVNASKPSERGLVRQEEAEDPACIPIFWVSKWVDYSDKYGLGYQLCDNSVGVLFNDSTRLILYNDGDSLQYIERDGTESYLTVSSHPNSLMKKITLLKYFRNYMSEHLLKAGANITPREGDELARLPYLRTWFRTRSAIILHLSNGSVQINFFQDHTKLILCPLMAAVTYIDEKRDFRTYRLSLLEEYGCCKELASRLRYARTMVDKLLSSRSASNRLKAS
Chain of Dual specificity protein kinase CLK3 (P49761 whole entry, looked up, canonical isoform): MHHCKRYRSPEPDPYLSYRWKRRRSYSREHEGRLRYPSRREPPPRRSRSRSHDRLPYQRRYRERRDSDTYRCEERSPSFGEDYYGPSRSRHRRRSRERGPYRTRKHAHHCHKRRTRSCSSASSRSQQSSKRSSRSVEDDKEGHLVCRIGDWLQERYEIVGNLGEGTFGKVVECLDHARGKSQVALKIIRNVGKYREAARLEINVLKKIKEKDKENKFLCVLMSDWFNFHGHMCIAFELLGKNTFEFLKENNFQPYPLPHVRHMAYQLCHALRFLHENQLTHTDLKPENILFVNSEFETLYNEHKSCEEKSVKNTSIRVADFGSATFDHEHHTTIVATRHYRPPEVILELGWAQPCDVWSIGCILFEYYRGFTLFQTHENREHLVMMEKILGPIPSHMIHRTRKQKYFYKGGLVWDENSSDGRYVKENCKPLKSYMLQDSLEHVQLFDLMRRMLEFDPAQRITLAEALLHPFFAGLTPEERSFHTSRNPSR

`CC(C)(O)[C@H](F)CN1Cc2cc(NC(=O)c3cnn4cccnc34)c(N3CCOCC3)cc2C1=O` gave a dTM [1] of 1.3 K.

Molecule `C=CC(=O)Nc1ccc(C(=O)Nc2[nH]nc3c2CN(C(=O)N[C@H](CN(C)C)c2ccccc2)C3(C)C)cc1` has a % of engagement [2] of -6.8% and a % of engagement [3] of 8.1%.

Work on `C=CC(=O)Nc1cc(-n2c(=O)ccc3cnc4ccc(-c5ccc(NS(C)(=O)=O)cc5)cc4c32)ccc1C` yielded a % of control ([4]; at 1 µM) of 100%, a % of control ([4]; at 10 µM) of 95% and a % of control ([5]; at 1 µM) of 100%. The % of control ([5]; at 10 µM) was 75%.
